Test results taken from the kinase profiling compilation of Christmann-Franck et al. (2016).
“And” between values parts separate entries of the source, which are not always exact repeats. Equal values may be shown once.

How the values were obtained:
Assay in all cases: radiometric filter-binding kinase assay, Kinase HotSpot
Settings in all cases: compound 0.5 µM; ATP 10 µM
[1] = target: AKT1 (human) (UniProt P31749)
[2] = target: CAMK1D (human) (UniProt Q8IU85)
[3] = target: CAMK2A (human) (UniProt Q9UQM7)
[4] = target: CAMKK1 (human) (UniProt Q8N5S9)
[5] = target: CAMKK2 (human) (UniProt Q96RR4)
Sequence of CAMKK2 (human) (Q96RR4 whole entry, looked up): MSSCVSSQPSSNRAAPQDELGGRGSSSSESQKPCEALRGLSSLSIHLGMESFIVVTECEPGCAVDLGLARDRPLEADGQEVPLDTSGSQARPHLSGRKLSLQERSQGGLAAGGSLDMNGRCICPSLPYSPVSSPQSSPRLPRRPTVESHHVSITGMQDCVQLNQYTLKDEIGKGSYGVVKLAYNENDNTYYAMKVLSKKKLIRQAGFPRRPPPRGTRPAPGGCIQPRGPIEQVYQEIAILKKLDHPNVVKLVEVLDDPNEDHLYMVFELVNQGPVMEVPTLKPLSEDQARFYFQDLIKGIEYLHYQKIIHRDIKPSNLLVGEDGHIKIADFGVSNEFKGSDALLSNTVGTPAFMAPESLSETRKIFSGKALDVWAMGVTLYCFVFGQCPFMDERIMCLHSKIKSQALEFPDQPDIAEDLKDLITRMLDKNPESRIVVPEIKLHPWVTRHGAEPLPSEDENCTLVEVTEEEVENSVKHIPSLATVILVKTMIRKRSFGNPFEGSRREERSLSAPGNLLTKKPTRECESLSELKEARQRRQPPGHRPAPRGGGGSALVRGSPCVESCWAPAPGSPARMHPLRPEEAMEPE

[6] = target: CDK2 CCNE1 (human) (UniProt P24941+P24864)
[7] = target: CDK5 CDK5R1 p35 (human) (UniProt Q00535+Q15078)
[8] = target: CDK7 CCNH MNAT1 (human) (UniProt P50613+P51948+P51946)
[9] = target: CSNK1A1 (human) (UniProt P48729)
[10] = target: CSNK1G3 (human) (UniProt Q9Y6M4)
[11] = target: DAPK3 (human) (UniProt O43293)
[12] = target: DYRK1A (human) (UniProt Q13627)
[13] = target: DYRK2 (human) (UniProt Q92630)
Sequence of DYRK2 (human) (Q92630 whole entry, looked up): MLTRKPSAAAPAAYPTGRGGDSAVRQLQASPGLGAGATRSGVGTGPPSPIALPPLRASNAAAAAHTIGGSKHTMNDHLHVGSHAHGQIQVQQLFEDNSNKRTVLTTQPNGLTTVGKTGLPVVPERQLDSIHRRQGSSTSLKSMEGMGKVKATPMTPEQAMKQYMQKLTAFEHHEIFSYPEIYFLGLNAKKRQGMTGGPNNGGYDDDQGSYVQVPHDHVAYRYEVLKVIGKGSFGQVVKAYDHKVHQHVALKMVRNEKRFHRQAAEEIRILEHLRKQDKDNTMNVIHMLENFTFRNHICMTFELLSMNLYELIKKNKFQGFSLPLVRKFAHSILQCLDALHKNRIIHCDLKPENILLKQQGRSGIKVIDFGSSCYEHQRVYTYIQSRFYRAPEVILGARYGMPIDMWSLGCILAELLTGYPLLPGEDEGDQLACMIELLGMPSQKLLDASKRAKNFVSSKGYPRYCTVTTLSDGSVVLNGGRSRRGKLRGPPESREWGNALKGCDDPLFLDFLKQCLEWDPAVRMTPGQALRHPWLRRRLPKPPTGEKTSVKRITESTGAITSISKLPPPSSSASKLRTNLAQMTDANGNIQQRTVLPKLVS

[14] = target: EPHB4 (human) (UniProt P54760)
[15] = target: FER (human) (UniProt P16591)
[16] = target: FGFR2 (human) (UniProt P21802)
[17] = target: FGFR3 (human) (UniProt P22607)
Sequence of FGFR3 (human) (P22607 whole entry, looked up): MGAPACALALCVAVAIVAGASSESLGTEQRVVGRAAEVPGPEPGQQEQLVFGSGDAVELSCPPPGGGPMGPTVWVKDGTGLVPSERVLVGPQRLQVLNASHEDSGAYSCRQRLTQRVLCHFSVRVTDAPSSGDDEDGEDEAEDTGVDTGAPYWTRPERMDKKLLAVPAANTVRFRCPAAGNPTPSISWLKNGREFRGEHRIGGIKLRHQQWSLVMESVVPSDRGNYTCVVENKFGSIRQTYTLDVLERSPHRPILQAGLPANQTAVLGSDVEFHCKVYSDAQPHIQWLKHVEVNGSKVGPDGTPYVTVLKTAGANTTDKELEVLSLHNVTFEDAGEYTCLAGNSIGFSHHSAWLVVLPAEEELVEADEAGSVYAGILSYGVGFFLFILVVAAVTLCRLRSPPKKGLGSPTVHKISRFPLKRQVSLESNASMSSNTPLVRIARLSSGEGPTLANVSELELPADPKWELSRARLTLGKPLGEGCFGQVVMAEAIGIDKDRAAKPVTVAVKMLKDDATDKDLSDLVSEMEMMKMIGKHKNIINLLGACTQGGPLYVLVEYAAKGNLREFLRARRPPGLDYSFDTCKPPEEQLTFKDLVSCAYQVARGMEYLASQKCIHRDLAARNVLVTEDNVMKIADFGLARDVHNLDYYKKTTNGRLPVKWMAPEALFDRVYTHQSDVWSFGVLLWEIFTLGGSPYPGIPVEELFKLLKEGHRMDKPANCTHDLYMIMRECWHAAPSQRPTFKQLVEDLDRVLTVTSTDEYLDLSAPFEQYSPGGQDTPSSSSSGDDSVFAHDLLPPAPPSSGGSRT

[18] = target: FLT1 (human) (UniProt P17948)
[19] = target: FYN (human) (UniProt P06241)
[20] = target: JAK2 JH1 JH2 (human) (UniProt O60674)
[21] = target: LYN (human) (UniProt P07948)
Sequence of LYN (human) (P07948 whole entry, looked up): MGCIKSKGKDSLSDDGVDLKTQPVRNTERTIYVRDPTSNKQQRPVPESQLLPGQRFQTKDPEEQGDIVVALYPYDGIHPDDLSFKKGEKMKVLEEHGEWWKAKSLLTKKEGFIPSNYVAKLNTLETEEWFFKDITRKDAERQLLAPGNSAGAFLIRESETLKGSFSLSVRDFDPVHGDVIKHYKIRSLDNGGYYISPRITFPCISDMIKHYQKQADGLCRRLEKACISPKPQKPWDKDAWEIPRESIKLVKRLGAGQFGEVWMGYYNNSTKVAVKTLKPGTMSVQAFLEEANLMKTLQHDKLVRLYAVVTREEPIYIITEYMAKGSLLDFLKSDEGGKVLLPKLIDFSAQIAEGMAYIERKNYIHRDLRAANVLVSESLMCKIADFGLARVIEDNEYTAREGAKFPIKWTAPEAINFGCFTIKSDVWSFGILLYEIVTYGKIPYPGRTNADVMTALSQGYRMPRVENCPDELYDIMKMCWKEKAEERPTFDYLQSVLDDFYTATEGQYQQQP

[22] = target: MAPK1 (human) (UniProt P28482)
[23] = target: MAPK10 (human) (UniProt P53779)
Sequence of MAPK10 (human) (P53779 whole entry, looked up): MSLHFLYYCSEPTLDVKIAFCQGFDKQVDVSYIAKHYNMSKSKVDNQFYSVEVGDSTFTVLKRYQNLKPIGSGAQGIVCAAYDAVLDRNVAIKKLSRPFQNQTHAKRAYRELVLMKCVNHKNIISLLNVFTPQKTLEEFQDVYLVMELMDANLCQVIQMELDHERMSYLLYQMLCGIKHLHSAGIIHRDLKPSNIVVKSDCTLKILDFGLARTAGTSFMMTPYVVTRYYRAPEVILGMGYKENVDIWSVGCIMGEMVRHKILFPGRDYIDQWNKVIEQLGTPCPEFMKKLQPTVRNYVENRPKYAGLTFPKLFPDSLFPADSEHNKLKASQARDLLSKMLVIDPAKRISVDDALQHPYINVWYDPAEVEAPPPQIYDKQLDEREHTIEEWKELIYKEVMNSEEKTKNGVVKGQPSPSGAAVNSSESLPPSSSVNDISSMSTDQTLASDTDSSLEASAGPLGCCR

[24] = target: MAPK14 (human) (UniProt Q16539)
[25] = target: MAPK8 (human) (UniProt P45983)
[26] = target: MKNK2 (human) (UniProt Q9HBH9)
[27] = target: MST1R (human) (UniProt Q04912)
[28] = target: NEK4 (human) (UniProt P51957)
Sequence of NEK4 (human) (P51957 whole entry, looked up): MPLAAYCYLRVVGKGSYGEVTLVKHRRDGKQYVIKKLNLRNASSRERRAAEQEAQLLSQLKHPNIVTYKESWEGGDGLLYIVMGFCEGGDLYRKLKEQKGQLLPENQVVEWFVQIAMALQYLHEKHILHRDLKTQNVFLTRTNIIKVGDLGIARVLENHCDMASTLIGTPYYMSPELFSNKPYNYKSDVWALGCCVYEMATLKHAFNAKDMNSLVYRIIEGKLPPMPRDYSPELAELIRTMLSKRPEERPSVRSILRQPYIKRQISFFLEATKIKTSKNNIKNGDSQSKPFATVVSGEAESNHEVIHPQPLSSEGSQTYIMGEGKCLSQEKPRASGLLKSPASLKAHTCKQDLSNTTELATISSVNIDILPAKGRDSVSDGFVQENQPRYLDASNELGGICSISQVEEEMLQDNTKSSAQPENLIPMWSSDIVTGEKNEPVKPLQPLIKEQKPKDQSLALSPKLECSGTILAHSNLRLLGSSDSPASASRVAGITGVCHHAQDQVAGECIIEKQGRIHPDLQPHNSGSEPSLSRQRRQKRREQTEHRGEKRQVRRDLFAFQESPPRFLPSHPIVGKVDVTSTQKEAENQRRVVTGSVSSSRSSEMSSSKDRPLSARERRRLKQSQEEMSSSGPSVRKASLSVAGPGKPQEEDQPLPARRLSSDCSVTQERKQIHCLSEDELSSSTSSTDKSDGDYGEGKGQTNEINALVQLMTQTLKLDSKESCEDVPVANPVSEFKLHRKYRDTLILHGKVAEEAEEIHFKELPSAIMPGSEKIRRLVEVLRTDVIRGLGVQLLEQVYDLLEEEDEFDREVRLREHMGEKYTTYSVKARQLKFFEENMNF

[29] = target: NTRK2 (human) (UniProt Q16620)
[30] = target: PAK1 (human) (UniProt Q13153)
[31] = target: PIM3 (human) (UniProt Q86V86)
[32] = target: PKN1 (human) (UniProt Q16512)
[33] = target: PRKCA (human) (UniProt P17252)
[34] = target: PRKCB2 (human) (UniProt P05771)
[35] = target: PRKCG (human) (UniProt P05129)
[36] = system: PRKCQ (human), Q04759 [P330L]
[37] = target: RAF1 (human) (UniProt P04049)
[38] = target: RPS6KA2 KD1 KD2 (human) (UniProt Q15349)
[39] = target: STK33 (human) (UniProt Q9BYT3)
[40] = target: TTK (human) (UniProt P33981)
[41] = target: TYK2 JH1 catalytic (human) (UniProt P29597)

Sequence of CAMK1D (human) (Q8IU85 whole entry, looked up): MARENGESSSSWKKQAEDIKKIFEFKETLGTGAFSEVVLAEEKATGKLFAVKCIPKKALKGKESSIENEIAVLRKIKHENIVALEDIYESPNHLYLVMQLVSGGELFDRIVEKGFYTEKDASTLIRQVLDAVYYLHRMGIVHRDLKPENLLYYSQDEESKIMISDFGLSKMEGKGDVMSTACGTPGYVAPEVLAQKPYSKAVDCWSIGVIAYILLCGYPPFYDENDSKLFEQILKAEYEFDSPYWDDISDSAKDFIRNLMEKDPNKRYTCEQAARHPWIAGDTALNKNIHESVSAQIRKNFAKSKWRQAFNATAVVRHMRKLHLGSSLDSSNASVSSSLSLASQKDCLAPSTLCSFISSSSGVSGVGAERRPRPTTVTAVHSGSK

## Cn1c2ccccc2c2c3c(c4c5ccccc5n(CCC#N)c4c21)CNC3=O
[1]
  residual activity: 108%
[2]
  residual activity: 82.4%
[3]
  residual activity: 19.1%
[4]
  residual activity: 19.3%
[5]
  residual activity: 3.88%
[6]
  residual activity: 27.8%
[7]
  residual activity: 8.52%
[8]
  residual activity: 84.6%
[9]
  residual activity: 75.4%
[10]
  residual activity: 137%
[11]
  residual activity: 93.6%
[12]
  residual activity: 46.3%
[13]
  residual activity: 48.9%
[14]
  residual activity: 96.3%
[15]
  residual activity: 5.9%
[16]
  residual activity: 79.8%
[17]
  residual activity: 76.7%
[18]
  residual activity: 63.6%
[19]
  residual activity: 90.6%
[20]
  residual activity: 5.58%
[21]
  residual activity: 90.3% and 94.4%
[22]
  residual activity: 104%
[23]
  residual activity: 94.5%
[24]
  residual activity: 93.5%
[25]
  residual activity: 78.7%
[26]
  residual activity: 18%
[27]
  residual activity: 111%
[28]
  residual activity: 49.1%
[29]
  residual activity: 0.815%
[30]
  residual activity: 83.3%
[31]
  residual activity: 17.3%
[32]
  residual activity: 10.3%
[33]
  residual activity: 7.58%
[34]
  residual activity: 9.73%
[35]
  residual activity: 72.1%
[36]
  residual activity: 76.3%
[37]
  residual activity: 111%
[38]
  residual activity: 0.299%
[39]
  residual activity: 26.5%
[40]
  residual activity: 69%
[41]
  residual activity: 2.62%

## N#Cc1c[nH]c2c[nH]/c(=N\Cc3cccnc3)cc2/c1=N\c1ccc(F)c(Cl)c1
[1]
  residual activity: 98.6%
[2]
  residual activity: 97.8%
[3]
  residual activity: 105%
[4]
  residual activity: 105%
[5]
  residual activity: 90.1%
[6]
  residual activity: 94.1%
[7]
  residual activity: 80.4%
[8]
  residual activity: 87.4%
[9]
  residual activity: 101%
[10]
  residual activity: 103%
[11]
  residual activity: 101%
[12]
  residual activity: 52.7%
[13]
  residual activity: 95.5%
[14]
  residual activity: 85.2%
[15]
  residual activity: 82.9%
[16]
  residual activity: 103%
[17]
  residual activity: 91.7%
[18]
  residual activity: 88%
[19]
  residual activity: 103%
[20]
  residual activity: 99%
[21]
  residual activity: 90.4% and 94.1%
[22]
  residual activity: 105%
[23]
  residual activity: 95%
[24]
  residual activity: 115%
[25]
  residual activity: 110%
[26]
  residual activity: 79.3%
[27]
  residual activity: 89.6%
[28]
  residual activity: 71.7%
[29]
  residual activity: 101%
[30]
  residual activity: 95.7%
[31]
  residual activity: 85%
[32]
  residual activity: 101%
[33]
  residual activity: 89.7%
[34]
  residual activity: 86.2%
[35]
  residual activity: 111%
[36]
  residual activity: 113%
[37]
  residual activity: 90.9%
[38]
  residual activity: 87.3%
[39]
  residual activity: 87.4%
[40]
  residual activity: 99.1%
[41]
  residual activity: 103%
